Laboratory results taken from patent US11434258B2, “Compounds (immunorhelins)” (ISR IMMUNE SYSTEM REGULATION HOLDING AB (PUBL), priority 2017, dated 2022).
Non-standard residues stand in square brackets, D forms with d. Residues, ends and D or L forms follow the SMILES beside them. *: point of attachment. d2Nal = N[C@H](Cc1ccc2ccccc2c1)C(=O)O; pGlu = O=C1CC[C@@H](C(=O)O)N1; tBu = CC(C)(C)*

Assays:
[1] = Stability in aqueous media (PBS pH 7.4); type: physicochemical; set-up: unit not given here; conditions: phosphate buffer solution (PBS); PBS pH 7.4, 37° C., samples at T=0, 4, 24, 96 h; read-out: Stability grading (t1/2)
Text: LC/MS data was collected for compound identity.

GnRHR = molecular target: T1, GnRHR (Homo sapiens, UniProt P30968); assay: Calcium assay in CHO-K1 cells (Genscript), FLIPR; type: cell-based; conditions: CHO-K1/GnRHR/Ga15 cells, relative to agonist control, read-out: GNRHR Stimulation at 1 μM
T1 construct: host or cells: CHO-K1 (CHO-K1/GnRHR/Ga15)
T1 sequence (P30968 1-328): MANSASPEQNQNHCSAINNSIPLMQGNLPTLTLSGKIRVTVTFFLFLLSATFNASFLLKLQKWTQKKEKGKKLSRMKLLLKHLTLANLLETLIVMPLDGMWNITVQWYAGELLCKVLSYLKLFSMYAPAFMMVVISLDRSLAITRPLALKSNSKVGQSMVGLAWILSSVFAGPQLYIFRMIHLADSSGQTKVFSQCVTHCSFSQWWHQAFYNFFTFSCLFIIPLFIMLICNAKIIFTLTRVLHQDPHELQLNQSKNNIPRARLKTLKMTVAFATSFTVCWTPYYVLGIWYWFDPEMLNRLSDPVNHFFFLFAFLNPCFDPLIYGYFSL
Procedure: Test article sample solutions were dissolved in HBSS buffer (with 20 mM HEPES buffer, pH 7.4) to form the 5× working solution. FLIPR® Calcium 4 assay kit from Molecular devices (R8141) was used as required. In brief, CHO-K1 cells expressing GnRHR (CHO-K1/GnRHR/Ga15, Genscript accession NM_000406) were respectively cultured in the 10-cm dishes and maintained at 37° C./5% CO2. CHO-K1 cells expressing GNRHR were respectively seeded in a 384-well black-wall, clear-bottom plate at a density of 15,000 cells per well in 20 μl of growth medium about 18 hours prior to the day of experiment and maintained at 37° C./5% CO2. Then, 20 μl of dye loading solution was added into the wells and the plates were subsequently placed into a 37° C. incubator for 60 minutes, followed by a 15 minutes' incubation at room temperature. At last, 10 μl of compounds or control agonist were added into respective wells of the assay plate during reading in FLIPR. The plate containing 5× compound and control agonist solution was placed in FLIPR. Solutions were added into the cell plate automatically at the 20 seconds and the fluorescence signal was monitored for an additional 100 seconds (21 sec to 120 sec.). Data were recorded by ScreenWorks (version 3.1) as FMD files with FLIPR and stored on the GenScript computer network for off-line analysis. Data acquisition and analyses was performed using ScreenWorks (version 3.1) program and exported to Excel. The average value of the first 20 seconds' reading was calculated as the baseline and the relative fluorescent units (ΔRFU) intensity values were calculated by subtracting the average value of baseline from the maximum fluorescent units (21 s to 120 s).
The % Stimulation was calculated with the following equation: % Stimulation=(ΔRFUCompound−ΔRFUBackground)/(ΔRFUAgonist control−ΔRFUBackground)×100
Dose response curves were fitted with four-parameter-logistic-equation by the software GraphPad Prism 6.
Equation: four parameter logistic equation. Y=Bottom+(Top-Bottom)/(1+10^((Log EC50−X)×Hillslope))
X is the logarithm of concentration. Y is the response.

Row | Compound | half-life at 0.2 mg/ml [1] | activation at 1 µM (GnRHR) [%]
1 | NC(=O)CNC(=O)[C@@H]1CCCN1C(=O)[C@H](Cc1ccc(O)cc1)NC(=O)[C@H](Cc1c[nH]c2ccccc12)NC(=O)[C@@H](Cc1c[nH]c2ccccc12)NC(=O)[C@H](Cc1c[nH]cn1)NC(=O)[C@H](CO)NC(=O)[C@H](Cc1c[nH]c2ccccc12)NC(=O)[C@H](Cc1c[nH]cn1)NC(=O)[C@@H]1CCC(=O)N1 [Compound 65, pGlu-His-Trp-Ser-His-D-Trp-Trp-Tyr-Pro-Gly-amide] ([pGlu]HWSH[dW]WYPG-NH2) | > 96 | 72
2 | CCNC(=O)[C@@H]1CCCN1C(=O)[C@H](Cc1ccc(O)cc1)NC(=O)[C@H](Cc1c[nH]c2ccccc12)NC(=O)[C@@H](COC(C)(C)C)NC(=O)[C@H](Cc1ccc(O)cc1)NC(=O)[C@H](CO)NC(=O)[C@H](Cc1c[nH]c2ccccc12)NC(=O)[C@H](Cc1c[nH]cn1)NC(=O)[C@@H]1CCC(=O)N1 [Compound 12, pGlu-His-Trp-Ser-Tyr-D-Ser(tBu)-Trp-Tyr-Pro-NHEt] ([pGlu]HWSY[dS](tBu)WYP-NHEt) | > 96 | 80
3 | CCNC(=O)[C@@H]1CCCN1C(=O)[C@H](CCCNC(=N)N)NC(=O)[C@H](Cc1c[nH]c2ccccc12)NC(=O)[C@@H](COC(C)(C)C)NC(=O)[C@H](Cc1ccc(O)cc1)NC(=O)[C@H](CO)NC(=O)[C@H](Cc1c[nH]c2ccccc12)NC(=O)[C@H](Cc1c[nH]cn1)NC(=O)[C@@H]1CCC(=O)N1 [Compound 8, pGlu-His-Trp-Ser-Tyr-D-Ser(tBu)-Trp-Arg-Pro-NHEt] ([pGlu]HWSY[dS](tBu)WRP-NHEt) | > 96 | 86
4 | NC(=O)CNC(=O)[C@@H]1CCCN1C(=O)[C@H](Cc1ccc(O)cc1)NC(=O)[C@H](Cc1c[nH]c2ccccc12)NC(=O)[C@@H](Cc1ccc2ccccc2c1)NC(=O)[C@H](Cc1c[nH]cn1)NC(=O)[C@H](CO)NC(=O)[C@H](Cc1c[nH]c2ccccc12)NC(=O)[C@H](Cc1c[nH]cn1)NC(=O)[C@@H]1CCC(=O)N1 [Compound 33, pGlu-His-Trp-Ser-His-D-Nal-Trp-Tyr-Pro-Gly-amide] ([pGlu]HWSH[d2Nal]WYPG-NH2) | < 96 | 67
5 | CCNC(=O)[C@@H]1CCCN1C(=O)[C@H](Cc1ccc(O)cc1)NC(=O)[C@H](CC(C)C)NC(=O)[C@@H](CC(C)C)NC(=O)[C@H](Cc1c[nH]cn1)NC(=O)[C@H](CO)NC(=O)[C@H](Cc1c[nH]c2ccccc12)NC(=O)[C@H](Cc1c[nH]cn1)NC(=O)[C@@H]1CCC(=O)N1 [Compound 48, pGlu-His-Trp-Ser-His-D-Leu-Leu-Tyr-Pro-NHEt] ([pGlu]HWSH[dL]LYP-NHEt) | > 96 | 118
6 | CCNC(=O)[C@@H]1CCCN1C(=O)[C@H](CCCNC(=N)N)NC(=O)[C@H](Cc1c[nH]c2ccccc12)NC(=O)[C@@H](CC(C)C)NC(=O)[C@H](Cc1ccc(O)cc1)NC(=O)[C@H](CO)NC(=O)[C@H](Cc1c[nH]c2ccccc12)NC(=O)[C@H](Cc1c[nH]cn1)NC(=O)[C@@H]1CCC(=O)N1 [Compound 44, pGlu-His-Trp-Ser-Tyr-D-Leu-Trp-Arg-Pro-NHEt] ([pGlu]HWSY[dL]WRP-NHEt) | > 96 | 111
7 | CC(C)C[C@H](NC(=O)[C@@H](Cc1c[nH]c2ccccc12)NC(=O)[C@H](Cc1c[nH]cn1)NC(=O)[C@H](CO)NC(=O)[C@H](Cc1c[nH]c2ccccc12)NC(=O)[C@H](Cc1c[nH]cn1)NC(=O)[C@@H]1CCC(=O)N1)C(=O)N[C@@H](Cc1ccc(O)cc1)C(=O)N1CCC[C@H]1C(=O)NCC(N)=O [Compound 16, pGlu-His-Trp-Ser-His-D-Trp-Leu-Tyr-Pro-Gly-amide] ([pGlu]HWSH[dW]LYPG-NH2) | > 96 | 76
